Assay results: patent US6693105B1, “Hydroxyl-containing compounds” (Cell Therapeutics, Inc., priority 1992, dated 2004)

Key:
[1] = tested on: PBMC (peripheral blood mononuclear cells); experiment: two-way mixed lymphocyte reaction (MLR), proliferative response of PBMC to allogeneic stimulation; assay type: cell-based, human; conditions: for IC50: Homo sapiens, PBMC, mixed lymphocyte reaction; for immune modulating activity compared with PTX: two-way MLR, FIG. 1
Excerpt: Various in vitro assays can be used to measure effects of the inventive compounds to module immune activity and have antitumor activity using a variety of cellular types. For example, a mixed lymphocyte reaction (MLR) provides a valuable screening tool to determine biological activity of each inventive compound. In the MLR, PBMCs (peripheral blood mononuclear cells) are obtained by drawing whole blood from healthy volunteers in a heparinized container and diluted with an equal volume of hanks balanced salt solution (HBSS). This mixture is layered on a sucrose density gradient, such as a Ficoll-Hypaque® gradient (specific gravity 1.08), and centrifuged at 1000×g for 25 minutes at room temperature or cooler. PBMC are obtained from a band at a plasma-Ficoll interface, separated and washed at least twice in a saline solution, such as HBSS. Contaminating red cells are lysed, such as by ACK lysis for 10 min at 37° C., and the PBMCs are washed twice in HBSS. The pellet of purified PBMCs is resuspended in complete medium, such as RPMI 1640 plus 20% human inactivated serum. Proliferative response of PBMC to allogeneic stimulation is determined in a two-way MLR performed in a 96-well microtiter plate. Briefly, approximately 10^5 test purified PBMC cells in […] complete medium are co-cultured with approximately 10^5 autologous (control culture) or allogeneic (stimulated culture) PBMC cells, wherein the allogeneic cells are from HLA disparate individuals. Varying doses of compounds (drug) are added at the time of addition of cells to the microtiter plate. The cultures are incubated for 6 days at 37° C. in a 5% CO2 atmosphere. At the conclusion of the incubation tritiated thymidine is added (for example, 1 µCi/well of 40 to 60 Ci/mmole) and proliferation determined by liquid scintillation counting.
This example illustrates the effect of compounds nos. 1551 and 1559 as an immune modulator. […] 1551 and 1559 (see above for chemical names and structures).

IL-12 signaling = experiment: IL-12 dependent in vitro T-helper cell (Th1) differentiation assay; assay type: cell-based; conditions: anti-CD3 stimulated splenic T cells, 5 U/ml IL-12, compound present during T cell activation
Method: This example illustrates the assay used to determine the effect of compounds of this invention in suppressing Th1 differentiation in vitro by blocking IL-12 signaling. Compounds are tested in an IL-12 dependent in vitro T-helper cell differentiation assay as described in LeGross et al., J. Exp. Med., 172:921-929 (1990). Recombinant IL-12 is used to induce Th1 differentiation. Splenic T cells are purified utilizing the antibodies RA3-3A1/6.1 (anti-B220), J11d and MAR8.5 (anti-rat kappa chain) to deplete the B cells via complement mediated toxicity following the procedure set forth in Klaus et al., J. Immunol., 149:1867-1875 (1992). Splenic T cells are stimulated at 5×10^5/ml with insoluble anti-CD3 alone (145-2C11, Pharmingen, San Diego, Calif.), or anti-CD3 and 5 U/ml IL-12, with and without each inventive compound. After seven days, equal numbers of viable cells are restimulated for 24 hours with anti-CD3 without the inventive compounds, and the supernatants are collected and assayed for IFN-γ production. IFN-γ and IL-4 levels are measured by Intertest kits from Genzyme specific for IFN-γ and IL-4.
Th1 differentiation is induced by culturing anti-CD3 stimulated T cells in the presence of exogenous IL-12. […] Neither the viability or recovery of T cells after one week of culture in the presence of the compound.

human stromal cells = experiment: PDGF-induced proliferation of human stromal cells; assay type: cell-based; conditions: 50 ng/ml PDGF-BB, drug added one hour before, tritiated thymidine, FIG. 2
Method: (§1) Another assay for measuring activity of the inventive compounds involves determining PDGF, FGF or VEGF proliferative response using either mouse NIH-3T3 (Balb) cells or human-derived stromal cells. Human stromal cells are plated (e g., about 2000 cells per well) in defined media (e.g., 69% McCoy's, 12.5% fetal calf serum, 12.5% horse serum, 1% antibiotics, 1% glutamine, 1% vitamin supplement, 0.8% essential amino acids, 1% sodium pyruvate, 1% sodium bicarbonate, 0.4% non-essential amino acids and 0.36% hydrocortisone). Two to three days later, the stromal cells are starved in serum-free media. Twenty four hours later, the cells are treated with a stimulating agent, such as PDGF-AA, PDGF-BB or basic FGF (fibroblast growth factor) with or without IL-1 or TNF, and tritiated thymidine. Cell proliferation is determined by liquid scintillation counting.
This example illustrates a comparison of compounds nos. 1551 and 1559 on PDGF-induced (platelet derived growth factor) proliferation of human stromal cells. Human stromal cells were starved in serum-free media for 24 hours and then stimulated with 50 ng/ml of PDGF-BB. The drugs were added at various indicated concentrations one hour prior to PDGF stimulation. Tritiated thymidine was added at the time of PDGF stimulation. The cells were harvested and counted by liquid scintillation 24 hours after stimulation with PDGF. […]

murine thymocytes = experiment: murine thymocyte proliferation co-stimulated by ConA and IL-2; assay type: cell-based, Balb/C mice; conditions: Mus musculus, ConA 0.25 mg/ml and IL-2 15 U/ml, drug added two hours before, 4 days
Excerpt: This example illustrates dose response curves used to generate 50% inhibition concentration (IC50) of inventive compounds nos. 1551 and 1564 for murine thymocyte proliferation, co-stimulated by Concanavalin A (ConA) and interleukin-2 alpha (IL-2). ConA, used to activate CD3, along with IL-2 co-stimulation, induces T-cell proliferation and differentiation. Thymuses, obtained from normal, female Balb/C mice, were dissociated and plated into 96-well plates at a density of 2×10^5 cells/well. ConA (0.25 mg/ml) and IL-2 (15 U/ml) were added to the wells. The cells were incubated for 4 days at 37° C. On day 4, the cells were pulsed with tritiated thymidine and incubated for an additional 4 hours. The amount of tritiated thymidine dye incorporated by the harvested cells was determined in a liquid scintillation counter. Drug doses (shown in FIGS. 7A and 7B) were added two hours prior to ConA and IL-2 activation. Background counts were less than 200 cpm. […] 1551 and 1564 are 28 and 49 μM.

NIH-3T3 Ras cells = experiment: cytotoxicity on NIH-3T3 Ras cells (BCECF viability stain); assay type: cell-based, mouse; conditions: various concentrations, FIG. 4
Method: (§2) This example provides data from an experiment measuring compound no. 1559 cytotoxicity on NIH-3T3 cells and their Ras transformed counterpart, NIH-3T3 Ras cells. The cells were treated with various concentrations of compound no. 1559 and later stained for cell viability with a fluorescence stain (BCECF) and analyzed using a Milipore fluorescence plate reader.

VCAM = experiment: TNF-induced cell surface expression of VCAM in HUVEC, flow cytometry; assay type: cell-based, human; conditions: for % of cells in gate (VCAM expression): 20 ng/ml TNF for 20 hours, 1559 at 0.25 mM one hour prior to TNF, TNF alone 34.5%, non-induced 0.4%
Method: This example illustrates the effect of compound no. 1559 on inhibiting cell surface expression of VCAM in human umbilical vein endothelial cells (HUVEC). The HUVEC cells were stimulated with 20 ng/ml TNF- for 20 hours and then stained for immunofluorescence using a monoclonal antibody recognizing VCAM, followed by a goat anti-mouse antibody conjugated to phycoerythrin. The cells were analyzed for antibody binding using flow cytometry. […] The top left histogram is non-TNF induced expression of VCAM (% of cells in gate A is 0.4%). […] 1559 (0.25 mM), one hour prior to TNF addition (% of cells in gate C is 24%).
This example illustrates the effect of compound no. 1559 on inhibiting cell surface expression of VCAM in HUVEC cells. The cells were stimulated with TNF- (20 ng/ml) for 20 hours and then stained for immunofluorescence using a monoclonal antibody recognizing VCAM, followed by a goat anti-mouse antibody conjugated to phycoerythrin. The cells were analyzed for antibody binding using flow cytometry. […] The mean fluorescence levels were decreased by compound no. 1559 treatment (1.7 fold decrease) when compared with control levels (TNF treatment, no drug).

NIH-3T3 cells = experiment: cytotoxicity on NIH-3T3 cells (BCECF viability stain); assay type: cell-based, mouse; conditions: various concentrations, FIG. 4
Method: as §2

[2] = tested on: LD-2 cells, a human malignant melanoma cell line; experiment: cytotoxicity on LD-2 cells (BCECF viability stain); assay type: cell-based; conditions: various concentrations, FIG. 3
Method: as §2, with “provide” for “provides”, “LD-2 cells, a human malignant melanoma cell line.” for “NIH-3T3 cells and their Ras transformed counterpart, NIH-3T3 Ras cells.”

Balb/3T3 cells = experiment: PDGF-BB-induced proliferation of Balb/3T3 cells; assay type: cell-based, mouse; conditions: tritiated thymidine, FIGS. 8A and 9A
Method: as §1
Balb/3T3 cells respond vigorously to PDGF stimulation, and are useful in vitro models for further study of PDGF-induced proliferation. Disregulated PDGF-proliferative response has been linked to a variety of diseases, including, e.g., restenosis, atherosclerosis, fibrosis, and tumor cell angiogenesis. Cells were plated in low serum-containing medium for 24 hours prior to stimulation with various concentrations (as reported in FIGS. 8A and 9A) of inventive compounds nos.2556 and 3504 (FIGS. 8A and 9A, respectively). […]

For `CC(O)CCCCCCn1c(=O)c2c(ncn2C)n(C)c1=O` (centres unmarked) [Compound 1536, 1-(7-Hydroxyoctyl)-3,7-dimethylxanthine], the IC50 [1] was 250 µM and the “inhibition of Th1 differentiation enhanced by exogenous IL-12” value (IL-12 signaling) was “inhibited Th1 differentiation”.

With `Cn1cnc2c1c(=O)n(CCCCCCC(O)CO)c(=O)n2C` (centres unmarked) [Compound 1538, 1-(7,8-Dihydroxyoctyl)-3,7-dimethylxanthine] the IC50 [1] was > 500 µM.

For `Cn1cnc2c1c(=O)n(CC(O)CO)c(=O)n2C` (centres unmarked) [Compound 1540, 1-(2,3-Dihydroxypropyl)-3,7-dimethylxanthine], the IC50 [1] was > 500 µM.

In the case of `CC(O)CCCn1c(=O)c2c(ncn2C)n(C)c1=O` (centres unmarked) [Compound 1542, 1-(4-Hydroxypentyl)-3,7-dimethylxanthine], the IC50 [1] is reported as > 500 µM.

For `Cn1cnc2c1c(=O)n(CCCCCCCO)c(=O)n2C` [Compound 1545, 1-(7-Hydroxyheptyl)-3,7-dimethylxanthine], the IC50 [1] was 300 µM.

For `Cn1cnc2c1c(=O)n(CCCCCCCCO)c(=O)n2C` [Compound 1546, 1-(8-Hydroxyoctyl)-3,7-dimethylxanthine], the IC50 [1] was 320 µM.

In the case of `CC(O)CCCCCCCn1c(=O)c2c(ncn2C)n(C)c1=O` (centres unmarked) [Compound 1551, 1-(8-Hydroxynonyl)-3,7-dimethylxanthine], the “inhibition of PDGF-induced stimulation (proliferation)” value (human stromal cells) is reported as “inhibited PDGF-induced stimulation”, the IC50 (murine thymocytes) is reported as 28 µM and the IC50 [1] is reported as 120 µM. For the same compound, the “immune modulating activity compared with PTX” value [1] was “more effective and more potent than PTX”.

For `Cn1cnc2c1c(=O)n(CCCCCCO)c(=O)n2C` [Compound 1556, 1-(6-Hydroxyhexyl)-3,7-dimethylxanthine], the IC50 [1] was > 500 µM.

In the case of `Cn1cnc2c1c(=O)n(CCCCCCCCCCO)c(=O)n2C` [Compound 1559, 1-(10-Hydroxydecyl)-3,7-dimethylxanthine], the “inhibition of PDGF-induced stimulation (proliferation)” value (human stromal cells) is reported as “inhibited PDGF-induced stimulation”, the cytotoxicity (NIH-3T3 Ras cells) is reported as “cytotoxic at higher concentrations” and the “% of cells in gate (VCAM expression)” value (VCAM) is reported as 24%. For the same compound, the “decrease of mean fluorescence levels (VCAM) compared with control (TNF treatment, no drug)” value (VCAM; TNF 20 ng/ml for 20 hours, FIG. 6) was 1.7 fold decrease, the cytotoxicity (NIH-3T3 cells) was “cytotoxic at higher concentrations” and the cytotoxicity [2] was “cytotoxic at higher concentrations”. The IC50 [1] was 150 µM and the “immune modulating activity compared with PTX” value [1] was “more effective and more potent than PTX”.

For `Cn1cnc2c1c(=O)n(CCCCCCCC(O)CO)c(=O)n2C` (centres unmarked) [Compound 1561, 1-(8,9-Dihydroxynonyl)-3,7-dimethylxanthine], the IC50 [1] was 185 µM.

Work on `Cn1cnc2c1c(=O)n(CCCCCCCCC(O)CO)c(=O)n2C` (centres unmarked) [Compound 1564, 1-(9,10-Dihydroxydecyl)-3,7-dimethylxanthine] yielded an IC50 (murine thymocytes) of 49 µM and an IC50 [1] of 210 µM.

`Cn1cnc2c1c(=O)n(CCCCCCCCCCCC(O)CO)c(=O)n2C` (centres unmarked) [Compound 2556] was tested, and the “inhibition of PDGF-induced proliferation” value (Balb/3T3 cells) was “inhibited PDGF-induced proliferation”.

`CC(O)CCCCCCCCCCCCn1c(=O)c2c(ncn2C)n(C)c1=O` (centres unmarked) [Compound 3504, 1-(13-Hydroxytetradecyl)-3,7-dimethylxanthine] was tested, and the “inhibition of PDGF-induced proliferation” value (Balb/3T3 cells) was “inhibited PDGF-induced proliferation”.

With `CC(=O)CCCCn1c(=O)c2c(ncn2C)n(C)c1=O` [PTX, 1-(5-oxohexyl)-3,7-dimethylxanthine, reference compound] the “% of cells in gate (VCAM expression)” value (VCAM) was 36.8%.
